Here are results for three compounds from patent US12251373B2, “Compounds and methods of treating retinal degeneration” (CASE WESTERN RESERVE UNIVERSITY, priority 2017, dated 2025).

One data set concerns the target T1, P23H opsin (Mus musculus, UniProt P15409, P23H).
T1 construct: expressed in transfected cells
Nature of the data set: Immunoblot of P23H opsin glycosylation in NIH3T3 cells. Further details: key to Improved glycosylation: n = no; y = yes. The following applies: for Improved glycosylation: P23H opsin; for glycosylation of P23H opsin (in words): immunoblot, PNGaseF, FIG. 3A-D. Type of data set: cell-based. The protocol: NIH3T3-(P23H-opsin/GFP) or NIH3T3-(WT-opsin/GFP) cells were seeded in a 48-well plate (Corning Costar) at 3.2×10^5 cells per well and incubated at 37° C. with 5% CO2 for 2 h. One hundred-μL of assay medium containing a compound at 5× its final concentration was added to each well. The plate was gently shaken for 5 s before further incubation at 37° C. with 5% CO2 for 24 h. The assay medium then was aspirated, and cells were lysed with 100 μL per well PBS containing 0.1% Triton X-100 and complete protease inhibitor cocktail (Roche, Basel, Switzerland) followed by sonication for 3 s. Protein concentrations were determined with the Bradford assay. For PNGase F catalyzed deglycosylation, 3 μL of PNGase F (1,500 U, NEB) was added to the cell lysate and the mixture was incubated at room temperature for 1 h before immunoblotting. For NIH3T3-(P23H-opsin/GFP) cells, 15 μg of total protein were loaded per well onto an SDS-polyacrylamide gel; whereas for NIH3T3-(WT-opsin/GFP) cells, 10 μg of total protein was loaded per well. Opsin protein was immunostained with 0.2 μg mL^−1 horseradish peroxidase-conjugated 1D4 anti-rhodopsin antibody. Band intensities were measured with ImageJ software (http://imagej.nih.gov/ij/; National the Institutes of Health, Bethesda, MD, USA) and normalized to a glyceraldehyde 3-phosphate dehydrogenase (GAPDH) loading control.
Background: In western blotting, separated proteins are transferred to a membrane and probed.

The next data set addresses T2, mouse P23H opsin (Mus musculus, UniProt P15409, P23H).
T2 construct: expressed in transfected cells
Nature of the data set: Immunostain and image-based high-content analysis of P23H mutant opsin in NIH3T3 cells. It counts as cell-based. The following applies: for effect on cell number: NIH3T3 cells, YC-001 up to 40 μM, 9-cis-retinal higher than 10 μM; for P23H opsin on the plasma membrane: dose-dependent, FIG. 2; for Immunostaining HCS MEM-Total ratio Max (fit) / EC50: ratio of P23H rod opsin fluorescence on plasma membrane to whole cell; for EC50: 1440 min, read-out: Immunostaining HCS MEM-Total ratio EC50. An excerpt:
Three NIH3T3 stable cell lines, NIH3T3-(WT-opsin/GFP), NIH3T3-(P23H-opsin/GFP), and NIH3T3-(GFP) were previously generated which stably express mouse WT opsin and GFP; P23H opsin and GFP; and only GFP, respectively. GFP is expressed separately from opsin in these cell lines. NIH3T3 cells were from ATCC. DNA constructs for generating these stable cell lines were confirmed by Sanger sequencing. Expression of GFP was confirmed by green fluorescence imaging, and expression of P23H and WT opsin were confirmed by immunoblots.
To characterize the effect of active compounds on the localization of P23H mutant opsin in mammalian cells, an image-based assay was used with cells immunostained for WT or P23H mutant opsin protein. Briefly, NIH3T3-(P23H-opsin/GFP) or NIH3T3-(WT-opsin/GFP) cells were seeded at 5,000 cells per well in a 384-well cell-carrier plate (PerkinElmer) and incubated at 37° C. with 5% CO2 for 2 h. Cells were treated with compounds as described for the β-Gal fragment complementation assay and incubated in assay medium for 24 h. The assay medium then was aspirated, and cells were fixed with 4% paraformaldehyde at 20 μL per well for 20 min at RT. Cells were immunostained in one of two ways: cell membranes were either permeabilized with 0.1% Triton X-100 for 15 min or left intact and then were incubated with 10% goat serum (Life Technologies). To detect opsin on the cell plasma membrane only, intact cells were immunostained with 20 μL per well of 20 μg mL^−1 B6-30 anti-rhodopsin antibody that recognizes the N-terminal epitope on the extracellular side of rhodopsin. To detect total opsin, cells were permeabilized with Triton X-100 and immunostained with 50 μg mL^−1 1D4 anti-rhodopsin antibody specific for the C-terminal epitope on the intracellular side of rhodopsin. Opsin immunostaining was visualized by incubating cells with 5 μg mL^−1 Cy3-conjugated goat anti-mouse IgG antibody. Three washes with phosphate-buffered saline (PBS: 10 mM Na2HPO4, 1.8 mM KH2PO4, pH 7.4, 137 mM NaCl, and 2.7 mM KCl) were performed between each step of incubation with antibody. In the last wash with PBS, DAPI was added to each well at 300 nM. Fluorescence images were obtained with the Operetta High Content Imaging System (PerkinElmer) using a 20× long objective. Five fields were taken of each well for cell images using three channels for fluorescence: GFP (100 ms), Cy3 (300 ms), and DAPI (50 ms). Images were analyzed with Acapella software from the Columbus data storage and analysis system (PerkinElmer). For cells immunostained with opsin on the non-permeabilized cell membrane only, an average of total fluorescence intensity of Cy3 per cell was used to quantify opsin in each well of the 384-well plate. For cells immunostained with opsin in permeabilized whole cells, an average ratio of Cy3 intensity on the cell plasma membrane (PM) to that of the entire cell (opsin ratio PM-to-total) was calculated for each well of a 384-well plate to quantify opsin transport to the plasma membrane. The plasma membrane was defined within ±5% of the cell border.

A further data set concerns the target T3, bovine opsin (Bos taurus, UniProt P02699).
T3 construct: ROS membranes were isolated from bovine retinas under dim red light; from tissue; host or cells: bovine retina rod outer segment (ROS) membranes, bleached with hydroxylamine
Nature of the data set: Isorhodopsin pigment regeneration of opsin in ROS disc membranes (absorption spectroscopy). It counts as biochemical. The following applies: for competition with 9-cis-retinal for isorhodopsin regeneration (absorption at 495 nm): with 5 μM 9-cis-retinal, simultaneously or sequentially. The procedure:
ROS membranes were isolated from bovine retinas under dim red light. To remove membrane associated proteins, ROS membranes were washed with a hypotonic buffer composed of 5 mM bis-tris propane (BTP) and 1 mM EDTA, pH 7.5, followed by gentle homogenization with subsequent centrifugation at 25,000 g for 30 min. This procedure was repeated four times. The final membrane pellet was suspended in 10 mM sodium phosphate buffer, pH 7.0, and 50 mM hydroxylamine to a 3 mg mL^−1 concentration of rhodopsin, placed on ice and illuminated with a 150 Watt bulb for 30 min. Membranes were pelleted by centrifugation at 16,000 g for 5 min and then washed four times with 10 mM sodium phosphate buffer, pH 7.0, and 2% bovine serum albumin followed by 4 washes with 10 mM sodium phosphate buffer, pH 7.0, and 2 washes with 20 mM BTP, pH 7.5, and 100 mM NaCl. The concentration of opsin was measured with a UV-visible spectrophotometer and quantified using the absorption coefficient ε280 nm=81,200 M^−1 cm^−1.
ROS membranes containing opsin were suspended in buffer composed of 20 mM BTP, pH 7.5, and 100 mM NaCl at a final concentration of 2.5 μM. […] Membranes then were solubilized with 20 mM DDM for 10 min at RT and UV-visible spectra of these samples were measured. To follow the kinetics of isorhodopsin regeneration, opsin membranes were treated with 0, 20 or 60 μM YC-001 for 15 min at RT. […] UV-visible spectra of the samples were measured every 2 min until 2 h of reaction time at RT. Each condition was repeated three times. The time course of isorhodopsin regeneration was fitted by a second order exponential decay and apparent half-lives were obtained at the time when reaction reached half of the end-point product.
Alternatively, opsin incubated with the above ligands was purified by 1D4-immunoaffinity chromatography. […] After washing, opsin samples were eluted by addition of 1D4 peptide ([…]) (SEQ ID NO: 1) to the above buffer and their spectra were measured with a UV-visible spectrophotometer.

T3 sequence (P02699 whole entry): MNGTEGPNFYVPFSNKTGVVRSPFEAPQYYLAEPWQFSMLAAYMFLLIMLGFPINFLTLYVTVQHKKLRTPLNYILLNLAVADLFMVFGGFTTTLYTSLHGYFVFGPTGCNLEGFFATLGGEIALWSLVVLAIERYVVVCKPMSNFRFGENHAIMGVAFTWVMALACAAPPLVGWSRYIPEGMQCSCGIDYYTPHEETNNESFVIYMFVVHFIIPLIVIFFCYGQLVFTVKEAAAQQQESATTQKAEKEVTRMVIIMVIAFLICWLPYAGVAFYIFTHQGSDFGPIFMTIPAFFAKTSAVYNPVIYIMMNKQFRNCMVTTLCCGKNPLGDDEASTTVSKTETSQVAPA

As for `CC1=C(/C=C/C(C)=C\C=C\C(C)=C\C=O)C(C)(C)CCC1` [9-cis-retinal, reference compound], on P23H opsin, the Improved glycosylation entry is reported as “y” and the “glycosylation of P23H opsin (in words)” value is given as “improvement of glycosylation”. Besides, on mouse P23H opsin, the “effect on cell number” value is given as “killed most cells”, the “P23H opsin on the plasma membrane” value is given as “increased”, the “Immunostaining HCS MEM-Total ratio Max (fit)” value turned out to be 0.019 and the EC50 was found to be 377 nM.

With `O=C(CCCCCN1C(=O)c2cccc3cccc(c23)C1=O)NO` [Scriptaid, reference compound], at bovine opsin, the “competition with 9-cis-retinal for isorhodopsin regeneration (absorption at 495 nm)” value was “does not compete with 9-cis-retinal”. At P23H opsin, the Improved glycosylation entry is recorded as “n” and the “glycosylation of P23H opsin (in words)” value was “does not affect the glycosylation”. In addition, at mouse P23H opsin, the “Immunostaining HCS MEM-Total ratio Max (fit)” value is on record as 0.070 and the EC50 was determined as 380 nM.

Consider `O=C1OCC(c2ccc(Cl)s2)=C1c1cccs1` [YC-001], for which the “total amount of regenerated isorhodopsin pigment at the end of the reaction” value at bovine opsin (FIG. 4d) is on record as “didn't affect the total amount”. Moreover, the “kinetics of isorhodopsin pigment regeneration” value at bovine opsin (YC-001 then 9-cis-retinal, FIG. 4d) is “slowed down the kinetics of pigment regeneration”. For the same compound, the “reversibility of interaction with opsin” value at bovine opsin (after opsin/isorhodopsin purification) is reported as “reversible”. Further, the “competition with 9-cis-retinal for isorhodopsin regeneration (absorption at 495 nm)” value at bovine opsin is “less isorhodopsin was generated”. Also, at P23H opsin, the Improved glycosylation entry is reported as “y” and the “glycosylation of P23H opsin (in words)” value is recorded as “improvement of glycosylation”. Moreover, the “ratio of P23H opsin stain in the ER region to total P23H opsin staining” value at mouse P23H opsin (FIG. 2M,N) was “decreased”. At mouse P23H opsin, the “effect on cell number” value is “did not affect cell number”, the “P23H opsin on the plasma membrane” value is on record as “increased”, the “Immunostaining HCS MEM-Total ratio Max (fit)” value worked out at 0.030 and the EC50 was 2750 nM.
